Source: the NIST ThermoML archive (doi:10.1021/je100638g)

Experiments:
[1] = for mass density / viscosity: 100 kPa, Liquid; for Normal melting temperature: Crystal, DTA
[2] = Molar enthalpy of transition or fusion; conditions: Crystal; DSC
[3] = xn = mol fraction of the nth substance listed; conditions: 100 kPa, Liquid

CCCn1cc[n+](C)c1.F[P-](F)(F)(F)(F)F [1-methyl-3-propylimidazolium hexafluorophosphate]
[1]
Conditions	mass density [kg/m3]	viscosity [mPa·s]
318.15 K	1397.5	85.01
323.15 K	1393.2	68.18
328.15 K	1389	55.46
333.15 K	1384.7	45.7
338.15 K	1380.5	38.09
343.15 K	1376.3	32.1
348.15 K	1372.1	27.32
353.15 K	1367.9	23.47
358.15 K	1363.8	20.34
363.15 K	1359.6	17.77

Conditions	Molar enthalpy of transition or fusion [kcal/mol]	Normal melting temperature [°C]
[1]	–	38.5
[2]	3.99	–

CCCn1cc[n+](C)c1.F[P-](F)(F)(F)(F)F [1-methyl-3-propylimidazolium hexafluorophosphate] + O
[3], x2 = 0.306
Conditions	mass density [kg/m3]	viscosity [mPa·s]
303.15 K	1389.2	39.41
308.15 K	1384.7	32.25
313.15 K	1380.2	26.84
318.15 K	1375.7	22.61
323.15 K	1371.3	19.29
328.15 K	1366.9	16.58
333.15 K	1362.5	14.39
338.15 K	1358.1	12.61
343.15 K	1353.8	11.13
348.15 K	1349.4	9.905
353.15 K	1345.1	8.874
358.15 K	1340.8	7.983
363.15 K	1336.5	7.228

CCCc1ccc[n+](C)c1.F[P-](F)(F)(F)(F)F [1-methyl-3-propylpyridinium hexafluorophosphate]
[1]
Conditions	mass density [kg/m3]	viscosity [mPa·s]
318.15 K	1365.4	132.87
323.15 K	1361.3	102.17
328.15 K	1357.3	79.97
333.15 K	1353.2	63.67
338.15 K	1349.2	51.52
343.15 K	1345.2	42.29
348.15 K	1341.2	35.16
353.15 K	1337.2	29.58
358.15 K	1333.2	25.15
363.15 K	1329.2	21.59

Conditions	Molar enthalpy of transition or fusion [kcal/mol]	Normal melting temperature [°C]
[1]	–	38.1
[2]	3.59	–

CCCc1ccc[n+](C)c1.F[P-](F)(F)(F)(F)F [1-methyl-3-propylpyridinium hexafluorophosphate] + O
[3], x2 = 0.249
Conditions	mass density [kg/m3]	viscosity [mPa·s]
303.15 K	1362.5	73.39
308.15 K	1358.3	57.55
313.15 K	1354	45.98
318.15 K	1349.8	37.36
323.15 K	1345.6	30.81
328.15 K	1341.4	25.75
333.15 K	1337.2	21.76
338.15 K	1333.1	18.6
343.15 K	1328.9	16.04
348.15 K	1324.8	13.98
353.15 K	1320.7	12.28
358.15 K	1316.6	10.86
363.15 K	1312.5	9.677
